Measured values from patent US20250108358A1, “PHOTOCHEMICALLY DRIVEN REGENERATION OF CARBON DIOXIDE SORBENTS” (UT-Battelle, LLC, priority 2023, published 2025).

Columns and labels:
Solubility in water = assay type: physicochemical
[1] = Head space CO2 release measurement (infrared sensor, 470 nm LED); details: mPAH 2/morpholine
Source text: This step is important to reproducibly measure the CO2 release as described below. […] After the reading of CO2 was steady, irradiation was applied from outside of the glass chamber using a 470 nm LED with moderate power (˜ 13 mW/cm^2). The CO2 released to the chamber was monitored using a head space method, as also used in previous studies. The concentration of CO2 gas in the chamber was monitored by the sensor and compared to that of a standard. Not only does this method directly measure the CO2 gas released, but also it is suitable for studying relatively small samples with good sensitivity. […] Addition of a strong acid leads to complete decomposition of the bicarbonate and CO2 release. […] It also reacts with CO2 via an acid-base reaction to form bicarbonate salt.

[2] = Total inorganic carbon (TIC) analysis, CO2-loaded glycine system; details: for reduction in the inorganic carbon content: vs CO2-loaded glycine solution
Description: See F. M. Brethome et al., Nat. Energy 2018, 3, 553-559 and R. Custelcean et al., Ind. Eng. Chem. Res. 2019, 58, 23338-23346.
(§1) Total inorganic carbon analysis: To quantify the amount of total inorganic carbon converted to CO2, the quantities of bicarbonate in the solution before and after the irradiation were determined using a total inorganic carbon analyzer consisting of an acidification module and a coulometric detection. […] Air was used as carrier gas (100 mL/min) in all experiments. 1 mM KHCO3 solution was tested similarly as the reference sample. Calculations were based on sample volume and 1 M Na2CO3 was used as the standard solution.

[3] = Total inorganic carbon (TIC) analysis, simulated system with KHCO3
Description: as §1

[4] = pH measurements of mPAH 1 solutions under 355 nm lamp irradiation; assay type: physicochemical
Source text: Light sources: The light source, referred as the 355 nm lamp thereafter, is a portion of the output of an Oriel 200 W mercury-xenon lamp, which was selected using a 2″ round Oriel broadband filter centered at 355 nm with a full width at half maximum of ˜150 nm and highest transmission of ˜90% (Filters 51664 and 59814). The photon fluxes at the sample position was ˜500 μmol·m^−2·s^−1, which measured using a handheld meter.
pH measurements and absorption spectra measurements: Typically for all experiments using the 355 nm lamp, 6 mL of solution mixtures were placed in a glass vial of diameter ˜2 cm and pH variations of the solutions upon light exposure were monitored continuously using a pH meter. Solutions were exposed to air and continuously stirred during pH measurements and sealed and kept in the dark without stirring for the mPAH 1 reverse reaction. Calculated amount of bicarbonate was replaced prior to second and third cycles. All absorption spectra during a given reaction event were acquired using a UV-vis spectrometer by taking a small amount (˜200 μL) of solution. Co-existence of different mPAH 1 conformers were verified using 1H NMR spectroscopy and theoretical calculations.

SMILES	solubility in water (Solubility in water)	time after start of irradiation at which head space [CO2] rose [1] [min]	reduction in the inorganic carbon content ([2]; 1 mM mixture of CO2-loaded glycine and mPAH 1, upon irradiation)	reduction in the inorganic carbon content ([2]; 20 mM mixture of CO2-loaded glycine and mPAH 1, upon irradiation) [%]	efficiency of conversion of total inorganic carbon to CO2 ([2]; amino acid (AA)-based DAC systems, with respect to initial concentrations)	total inorganic carbon in the solution converted to CO2 ([3]; 1 mM mPAH 1 + 1 mM KHCO3 (simulated system), upon irradiation) [%]	total bicarbonate converted to CO2 ([3]; 2 mM mPAH 1 pre-irradiated 30 min, mixed with equal volume 2 mM KHCO3, reaction without irradiation) [%]	total bicarbonate converted to CO2 ([3]; 2 mM mPAH 1 pre-irradiated, mixed with equal volume 2 mM KHCO3, continuous irradiation) [%]	rate of pH increase owing to CO2 release ([4]; 1 mM mPAH 1 + 1 mM KHCO3, second cycle of irradiation) [pH units/hour]	rate of pH increase owing to CO2 release ([4]; 1 mM mPAH 1 + 1 mM KHCO3, third cycle of irradiation) [pH units/hour]	pH increment ([4]; 1 mM mPAH 1 + 1 mM KHCO3, third cycle performed only 4 hours after the second cycle) [pH units/hour]	time for full reverse reaction to the initial trans isomer ([4]; mPAH 1 itself, in the dark) [h]
COC(=O)c1ccc2sc(/C=C/c3cc(S(=O)(=O)[O-])cc4cn[nH]c34)[n+](CCCS(=O)(=O)O)c2c1 [mPAH 2]	about 30 mM	~5	–	–	–	–	–	–	–	–	–	–
O=S(=O)([O-])CCC[n+]1c(/C=C/c2cc(S(=O)(=O)[O-])cc3cn[nH]c23)sc2ccccc21.[Na+] [mPAH 1]	–	–	approximately 68%	~78	68%-78%	55	~3	~50	0.35	0.11	0.31	4 to 6
